Tests used:
[1] = human, in vivo; cited from earlier work
[2] = tested on: HIV-infected cell lines and HIV-infected primary cells; settings: cited from earlier work
[3] = molecular target: T1, deoxyhypusyl hydroxylase (DOHH) (Homo sapiens, UniProt Q9BU89); assay: Cellular DOHH activity by metabolic labeling of deoxyhypusyl-eIF5A and hypusyl-eIF5A with (1,8-3H)spermidine; assay type: cell-based
T1 construct: endogenous in cells; host or cells: single-donor primary peripheral blood mononuclear cells (PBMCs), uninfected or infected with a clinical HIV-1 isolate
T1 sequence (Q9BU89 1-302): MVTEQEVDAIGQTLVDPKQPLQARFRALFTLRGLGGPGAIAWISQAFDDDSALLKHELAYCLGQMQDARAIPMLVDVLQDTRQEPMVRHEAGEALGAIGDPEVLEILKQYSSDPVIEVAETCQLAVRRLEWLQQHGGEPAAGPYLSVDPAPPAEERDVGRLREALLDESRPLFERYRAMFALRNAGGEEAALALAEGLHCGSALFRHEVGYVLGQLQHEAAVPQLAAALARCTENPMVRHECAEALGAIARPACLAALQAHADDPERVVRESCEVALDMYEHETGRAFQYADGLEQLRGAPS
Method: Fig 2 Effect of deferiprone in HIV-infected primary cells: Apoptotic DNA fragmentation, deoxyhypusyl-eIF5A accumulation, and DOHH activity. Apoptotic DNA fragmentation (Panel A) was detected by terminal deoxynucleotide transferase dUTP nick end labeling (TUNEL) of single-donor peripheral blood mononuclear cells, maintained in short-term non-replenished cultures as described. Cells were left uninfected and/or untreated; or infected immediately after plating with clinical HIV-1 isolate and 12 hours after infection, treated with 200 μM deferiprone. […] The dose-effect curve for inhibition of cellular DOHH by increasing deferiprone concentrations in short-term non-replenished single-donor cultures (Panel C) was calculated from the accumulation of its ^3H-labeled substrate and the decrease of its ^3H-labeled product; error bars are at the size of the graph symbols and not shown. Black, HIV-infected untreated cells; green, uninfected untreated cells; blue, uninfected deferiprone-treated cells; red, HIV-infected deferiprone-treated cells; large triangles, HIV-infected cells (red) or uninfected cells (blue) treated with 200 μM deferiprone.
Metabolic labeling with (1,8-^3H)spermidine at 5 μCi/ml for 18 hours was performed as described in primary cell cultures of the same volume, viability by dye exclusion, cell number, and donor origin. Following acid hydrolysis of each sample for release of radiolabeled hypusine and deoxyhypusine, separation by ion-exchange chromatography, and liquid scintillation measurement of incorporated label, 18 fractions were collected and the counts in the eluted fractions were proportionally adjusted to a total of 10,000 cpm per sample. This normalization adjusts for variances in the radioactivity of different samples and allows direct comparison of their hypusine-deoxyhypusine elution profiles. Only the hypusine- / deoxyhypusine-containing fractions (6 through 14) were used for analysis.

Cc1c(O)c(=O)ccn1C [deferiprone, 3-hydroxy-1,2-dimethylpyridin-4-one]
Abdominal pain/discomfort, patients affected [1]: 10.4%
Alanine aminotransferase increased, patients affected [1]: 7.5%
Arthralgia, patients affected [1]: 9.8%
Headache, patients affected [1]: 2.5%
Nausea, patients affected [1]: 12.6%
Neutropenia (neutrophils < 1.5 x 10^9/L and > 0.5 x 10^9/L), patients affected [1]: 6.2%
Vomiting, patients affected [1]: 9.8%
agranulocytosis (absolute neutrophil count less than 0.5 × 10^9/L), patients affected [1]: 1.7%
HIV-1 inhibition in chronically infected cell lines ([2]; 200 μM deferiprone): near-maximal HIV-1 inhibition
ribosomal presence of gag mRNA, amount of intra- and extracellular p24, budding of viral particles ([2]; treated HIV-infected cells): suppress
newly synthesized deoxyhypusyl-eIF5A accumulated in HIV-infected treated cells, higher than in uninfected treated cultures ([3]; 200 μM deferiprone): ~40%
DOHH activity in the primary cells ([3]; at ≤100 μM deferiprone, infected and uninfected cultures): ≥ 90%
cellular DOHH activity ([3]; at ≥200 μM deferiprone, infected and uninfected cultures): ≤ 8%

Source: article PMC4871512, “Drug-Based Lead Discovery: The Novel Ablative Antiretroviral Profile of Deferiprone in HIV-1-Infected Cells and in HIV-Infected Treatment-Naive Subjects of a Double-Blind, Placebo-Controlled, Randomized Exploratory Trial” (PLoS ONE, 2016)
